These results are taken from US5919756A, “Amides” (Eli Lilly and Company, priority 1997, dated 1999).

Format in all cases: cell-based
In experiment [1] the test system is Enterococcus, Resistant (4-6 isolates). In words: Enterococcus screen, broth micro-dilution MIC, resistant isolates. Conditions: mean of 4-6 isolates. More on the design: unit not given here. On the procedure:
(§1) The antibacterial efficacy of the present compounds is illustrated in TABLE 2. The minimal inhibitory concentrations (MICs) were determined using a standard broth micro-dilution assay.

Experiment [2] concerns Enterococcus, Sensitive (4-6 isolates). Description: Enterococcus screen, broth micro-dilution MIC, sensitive isolates. The arrangement: unit not given here. Conditions: mean of 4-6 isolates. As to the method:
as §1

Experiment [3] relates to Staphylococcus aureus 446. Description: Broth micro-dilution MIC, SA 446. Conditions: unit assumed. On the procedure:
as §1

Experiment [4] relates to Staphylococcus aureus 489. In words: Broth micro-dilution MIC, SA 489. The note with it: unit assumed. As to the method:
as §1

In experiment [5] the test system is Staphylococcus aureus 447. In words: Broth micro-dilution MIC, SA 447. The note with it: unit assumed. As to the method: as §1
Experiment [6] has as its system Staphylococcus haemolyticus 105. In words: Broth micro-dilution MIC, SH 105. Conditions: unit assumed. On the procedure:
as §1

Experiment [7] has as its system Staphylococcus haemolyticus 415. Description: Broth micro-dilution MIC, SH 415. The note with it: unit assumed. On the procedure:
as §1

Experiment [8] concerns Staphylococcus epidermis 270. In words: Broth micro-dilution MIC, SE 270. The note with it: unit assumed. As to the method:
as §1

Experiment [9] has as its system Streptococcus pneumoniae P1. In words: Broth micro-dilution MIC, S PN P1. The note with it: unit assumed. As to the method: as §1
Experiment [10] relates to Streptococcus pyogenes 203. In words: Broth micro-dilution MIC, S PY 203. Conditions: unit assumed. On the procedure:
as §1

For “N^4 -(4-phenylbenzyl)A82846B, butylamide, trifluoroacetate salt [Example 3]”, the “Minimum Inhibitory Concentrations (MICs), Mean Values of 4-6 Isolates, Resistant” value in [1] amounted to 2.4. Besides, in experiment [2], the “Minimum Inhibitory Concentrations (MICs), Mean Values of 4-6 Isolates, Sensitive” value was determined as 0.11. Moreover, the MIC, SA 446 in experiment [3] turned out to be 2 µg/mL. In experiment [4], the MIC, SA 489 amounted to 4 µg/mL. In [5], the MIC, SA 447 worked out at 2 µg/mL. Moreover, the MIC, SH105 in experiment [6] stood at 0.5 µg/mL. In addition, in [7], the MIC, SH415 amounted to 2 µg/mL. The MIC, SE270 in experiment [8] is 1 µg/mL. The MIC, S PN P1 in experiment [9] was not above 0.06 µg/mL. The substance also registered an MIC, S PY 203 in experiment [10] not above 0.06 µg/mL.
For the substance “N^4 -(4-phenylbenzyl)A82846B, methylamide, trifluoroacetate salt [Example 2]”, the “Minimum Inhibitory Concentrations (MICs), Mean Values of 4-6 Isolates, Resistant” value in experiment [1] was found to be 1.19. The “Minimum Inhibitory Concentrations (MICs), Mean Values of 4-6 Isolates, Sensitive” value in [2] stood at 0.041. In experiment [3], this substance displayed an MIC, SA 446 of 1 µg/mL. Besides, the MIC, SA 489 in [4] came out at 1 µg/mL. The substance also yielded an MIC, SA 447 in [5] of 0.5 µg/mL. Also, the MIC, SH105 in experiment [6] worked out at 0.125 µg/mL. Also, the MIC, SH415 in experiment [7] stood at 0.25 µg/mL. Further, the MIC, SE270 in experiment [8] is not above 0.06 µg/mL. In addition, in [9], the MIC, S PN P1 was not above 0.06 µg/mL. In addition, the MIC, S PY 203 in experiment [10] was not above 0.06 µg/mL.
